System in one data set: not listed separately
The experiment in a line: Rat brain uptake, left carotid artery perfusion. In kind it is in vivo. As to conditions: 30 seconds perfusion in phosphate buffered saline pH 7.4; N of 4 rats. From the text:
Experiments that evaluate the rat brain penetration of test compounds use a perfusion system where the left carotid artery is cannulated and the branch arteries are tied off. The test compound plus internal controls are perfused for 30 seconds into the left hemisphere in phosphate buffered saline at pH 7.4. The internal controls are atenolol (with low brain uptake) and antipyrine (with high brain uptake). After a 30 second washout with perfusate, the brain is removed surgically. The left hemisphere is homogenized; test compounds (plus internal controls) are extracted from brain homogenate, and analyzed using LC/MS/MS to determine the concentration of test compound and internal controls in the brain.
Chain of Purified pig DAAO (P00371 whole entry): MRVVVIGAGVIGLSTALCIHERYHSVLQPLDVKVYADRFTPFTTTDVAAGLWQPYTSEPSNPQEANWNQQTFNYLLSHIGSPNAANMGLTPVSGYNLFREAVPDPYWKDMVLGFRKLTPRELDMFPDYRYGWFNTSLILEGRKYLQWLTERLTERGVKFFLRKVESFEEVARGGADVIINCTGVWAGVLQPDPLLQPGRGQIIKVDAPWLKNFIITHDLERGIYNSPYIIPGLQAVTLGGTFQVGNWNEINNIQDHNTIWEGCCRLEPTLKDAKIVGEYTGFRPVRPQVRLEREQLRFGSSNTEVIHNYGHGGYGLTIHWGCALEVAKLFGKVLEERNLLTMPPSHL
For `Cc1ccc2c(O)noc2c1` [drawing 48], the “Rat Brain Uptake Rate” value stood at 199 pmol/g brain/sec. On the same count and under the same terms, to `Oc1noc2cc(Cl)ccc12` [drawing 49] belongs 162 pmol/g brain/sec.

For another data set, the target named is Purified pig DAAO (Sus scrofa, UniProt P00371). Description: In vitro measurements of DAAO activity (Amplex Red H2O2 fluorescence; alternative phenylglycine absorbance assay). As to conditions: read-out: Inhibition of DAAO, IC50. Type of data set: biochemical. On the procedure:
Purified pig DAAO, added to a buffered mixture of 50 mM D-Serine produces H202 in stoichiometric amounts for each D-Serine molecule oxidized. H202 production can be monitored with a commercially available dye Amplex Red, which in the presence of H202, is converted to the fluorescent product resorufin. For each described inhibitor, the fluorescence was also measured during additions of 80 μM H202 in the absence of DAAO, to control for artifactual inhibition of the dye conversion, and to quantify the amount of H202 produced. In an alternative assay of DAAO activity, the purified pig DAAO is added to buffered mixture of 1 mM phenylglycine in the presence of compounds. The activity of DAAO is monitored spectrophotometrically by its enzymatic conversion of phenylglycine to benzoylformic acid with optical absorption at 252 nm.
Inhibitors of DAAO's enzymatic cycle were serially diluted to reduce the level of inhibition. The parameters of a non-linear equation were adjusted to fit the resulting series of inhibition levels to extrapolate the concentration of compound where 50% inhibition is achieved (IC50). These numbers are averaged for the number (n) of independent measurements (on separate days) of the inhibition.
For orientation: IC50 means the midpoint of a concentration-inhibition curve. For the compound `Oc1cccc2onc(O)c12`, the IC50 was above 100 µM.

As for `Cc1ccc2onc(O)c2c1`, the IC50 is below 10 µM. As to `Oc1noc2cc(Cl)ccc12` [drawing 38], the IC50 was below 0.1 µM.

In the case of `COc1ccc2c(O)noc2c1`, the IC50 is below 10 µM.

Take `O=C(Nc1ccc2c(O)noc2c1)OCc1ccccc1`: the IC50 is above 100 µM. As to `Oc1noc2cccc(F)c12`, the concentration for half-maximal inhibition (IC50) was below 10 µM.

For `Oc1ccc2onc(O)c2c1`, the IC50 is above 100 µM.

As for `COc1cccc2onc(O)c12`, the IC50 is below 100 µM. Turning to `Oc1noc2cc(Cl)c(Br)cc12`, the IC50 is below 0.1 µM. Take `O=C(Nc1ccc2onc(O)c2c1)OCc1ccccc1`: the IC50 was above 100 µM. On to `Oc1noc2cc(OCc3ccccc3)ccc12`, for which the IC50 was above 100 µM. Still for that read-out and setting: to `Oc1noc2c(Cl)cccc12` belongs above 100 µM; to `Oc1noc2cc(Br)ccc12`, below 1 µM; to `Oc1noc2cc(F)ccc12`, below 1 µM. The same measure, in the same setting: for `Oc1noc2ccc(CCc3ccccc3)cc12` the value was below 100 µM; for `Oc1noc2ccc(F)cc12`, below 1 µM. The same measure, in the same setting: for `Cc1cc2onc(O)c2cc1I` the value was below 0.1 µM; for `COc1cccc2c(O)noc12`, below 100 µM; for `Oc1noc2cc(Cl)c(Cl)cc12`, below 0.1 µM. In the case of `O=C(O)c1cc2ccccc2[nH]1` [INDOLE-2-CARBOXYLIC ACID, reference compound], the 50% inhibitory concentration (IC50) was below 10 µM. `Oc1noc2ccc(OCc3ccccc3)cc12`: the IC50 was below 10 µM. Turning to `Oc1noc2c(F)cccc12`, the IC50 was below 100 µM. Still for that read-out and setting: for `Oc1noc2cc(Br)c(Cl)cc12` the value was below 0.1 µM; for `Cc1cc2onc(O)c2cc1Cl`, below 0.1 µM; for `Oc1noc2cc(Br)c(Br)cc12`, below 0.1 µM.

Consider `COc1ccc2onc(O)c2c1`, for which the half-inhibitory concentration (IC50) is below 10 µM. Turning to `Oc1noc2ccccc12`, the IC50 was below 1 µM.

Turning to `Cc1ccc2c(O)noc2c1` [drawing 22], the IC50 is below 1 µM.

For `Oc1ccc2c(O)noc2c1`, the IC50 is below 10 µM.

Take `Oc1noc2ccc(I)cc12`: the IC50 is below 10 µM.

Take `O=C(O)c1ccc[nH]1` [PYRROLE-2-CARBOXYLIC ACID, reference compound]: the IC50 was below 10 µM. On the same count and under the same terms, to `N#Cc1ccc2onc(O)c2c1` belongs below 100 µM.

With `Oc1noc2c(O)cccc12`, the IC50 is below 100 µM. Still for that read-out and setting: to `Cc1cc2onc(O)c2cc1Br` belongs below 0.1 µM; to `Oc1noc2ccc(Cl)cc12`, below 1 µM; to `Cc1cccc2c(O)noc12`, above 100 µM.

`Oc1noc2ccc(Br)cc12`: the IC50 was below 1 µM.

For a further data set, the target named is T1, D-Serine's binding site on the NMDA receptor (Rattus norvegicus, UniProt P35439).
T1 construct: membranes prepared from rat cerebral cortex; from tissue; host or cells: rat cerebral cortex membranes
The experiment in a line: NMDA receptor affinity, [3H]MDL105,519 radioligand binding, rat cerebral cortex membranes. The following applies: tested at 100 μM, read-out: inhibition of specific [3H]MDL105,519 binding. On the procedure: To measure the affinity of the compounds reported herein for D-Serine's binding site on the NMDA receptor (also known as the “Glycine site” or the “strychnine-insensitive glycine site”), a radioligand-binding assay was performed with membranes prepared from rat cerebral cortex. The radioactive ligand was [3H]MDL105,519. The amount of radioactivity displaced by the compounds was assessed by scintillation counting. Non-specific binding is accounted for in the presence of 1 mM Glycine. Affinities are calculated from the values of % inhibition of specific [3H]MDL105,519 binding by the test compounds.
By inhibition is commonly meant the relative decrease from the control value, in per cent. Take `Oc1noc2cc(Cl)ccc12` [drawing 47]: the inhibition at 100 µM was below 10%. Still for that read-out and setting: to `O=C(O)c1cc2ccccc2[nH]1` [INDOLE-2-CARBOXYLIC ACID, reference compound] belongs 77%.

The values above are taken from patent publication US7166725B2, “Benzo[d]isoxazol-3-ol DAAO inhibitors” (Sepracor Inc., priority 2003, dated 2007).
